Values after ≈ are worked out from the molar mass of the structure shown. Where two headings read alike, the source gives them in different places. Marks after values point to notes of the source that are not given here.
Legend:
[1] = test system: Penicillium chrysogenum Thom ATCC 48908; test: Well diffusion assay (zone of inhibition); assay type: cell-based; conditions: for zone of inhibition at 175000 µM / zone of inhibition at 350000 µM: Penicillium chrysogenum, read-out: Zone of inhibition, Average ± standard deviation
[2] = test system: Aspergillus niger isolate; test: Minimum fungicidal concentration (MFC); assay type: cell-based; conditions: for MFC: Aspergillus niger, read-out: Minimum fungicidal concentration
A. niger = test: Fungicidal effect in mold suspension, one hour treatment, DRBC plating; assay type: cell-based, Aspergillus niger; conditions: for A. niger count, Average ± standard deviation: n = 3
Method: Preparation of mold suspension. Aspergillus niger ATCC 24126 and Penicillium chrysogenum Thom ATCC 48908 were purchased from American Type Culture Collection (ATCC). The strains were stored at −80° C. in glycerol. Prior to test, both strains were revived by streaking a loopful of culture onto DRBC (i.e., dichloran rose-bengal chloramphenicol (CM1148B; Thermo Scientific Oxoid) prepared as per recommended by supplier) with 72 hours incubation at 25° C. The three-days old mold culture lawn was diluted in phosphate buffer (0.30 mM; pH 7.2) to obtain a mold suspension of ca. 10^6 CFU/mL. The colony count of the suspension was determined through conventional plating method using DRBC agar at the appropriate dilution. Briefly, the mold suspension was diluted to the appropriate dilution with phosphate buffer (0.30 mM; pH 7.2). Upon dilution, 100 μL of the diluted mold suspension was spread onto the DRBC agar. After which, the plates were incubated at 25° C. for five days prior to counting. Tests were carried out in triplicates.
Fungicidal effect of PPA against A. niger. The fungicidal effect of PPA in solution was evaluated in comparison to propionic acid and hydrogen peroxide. To serve as a positive control and comparison point, propionic acid, was tested at two concentrations, 1500 and 3000 ppm, equivalent to 0.02 and 0.04 mol/L. On the other hand, PPA was tested at a single concentration of 0.02 mol/L. To evaluate the effect of hydrogen peroxide, hydrogen peroxide was also included as one of the treatment groups. Hydrogen peroxide was tested at 2.43% w/w. The concentration of hydrogen peroxide to be tested is calculated based on the equivalent amount present in 0.02 mol/L of PPA, which is the sum of hydrogen peroxide already present and from the potential breakdown of PPA. A 900 μL of mold suspension (of c.a. 10^6 CFU/mL prepared in 0.9% sodium chloride) was treated with 100 μL of the test solutions (prepared in sterile water) for one hour.
After one hour, the treatment solutions were neutralized with 2 mL of sodium thiosulphate and 7 mL of phosphate buffer (0.3 mM; pH 7.2). The solution was at 10-1 dilution. Subsequently the solution was further diluted up to 10-5 with phosphate buffer. The mold count for each treatment was determined through conventional plating method using DRBC agar. Test was conducted in triplicates. Controls were prepared with i) 100 μL of sterile water instead of test solutions and ii) 900 μL of 0.9% sodium chlorine instead of mold suspension and 100 μL of sterile water instead of test solutions.

[3] = test system: Aspergillus niger ATCC 24126; test: Well diffusion assay (zone of inhibition); assay type: cell-based; conditions: for zone of inhibition at 175000 µM / zone of inhibition at 350000 µM: Aspergillus niger, read-out: Zone of inhibition, Average ± standard deviation
[4] = test system: mold in naturally contaminated feed for laying hens; test: Mold counts in naturally contaminated laying hen feed, 7 days; conditions: 2500 ppm peroxyacid on feed, 7 days at 25° C.
Method: PPA acid and peracetic acid stock solutions were provided at a concentration of 20% peroxyacid. The treatment solutions were diluted to the correct concentration with ASTM Type II water before application of the treatments. Feed for laying hens that is naturally contaminated with mold was used for the study. The initial mold count of the feed was log 4.66 cfu/g. For each treatment, 100 g of feed was treated with 1.5 ml of the diluted PPA, peracetic acid or a 1:1 mix of PPA acid and peracetic acid, resulting in a final concentration of 2500 ppm of peroxyacid on the feed. The negative control treatment was treated with 1.5 ml of water. The feed was kept for 7 days at 25° C. before analysis.
Triplicate 5 g feed samples from each treatment were taken and tested for molds. Each sample was mixed vigorously with 0.1% peptone water 30 s and then a 0.1 ml aliquot of the sample was plated on DRBC agar and incubated upright in a 25° C. incubator for 5 days before counting.

Aspergillus niger = conditions: cited from earlier work
Penicillium vericulosum = conditions: cited from earlier work
[5] = test system: Aspergillus spp., Penicillium spp, and Fusarium spp.; conditions: Higgins et al. 1999; cited from earlier work
[6] = ATCC48908, 0.175 mol/L active, 72 hours, n = 3
[7] = ATCC48908, 0.350 mol/L active, 72 hours, n = 3
[8] = 48 hours at 25° C., then DRBC plate 5 days at 25° C.
[9] = 0.175 mol/L active, 72 hours, n = 3
[10] = 0.350 mol/L active, 72 hours, n = 3

## CC(=O)O [Acetic acid]
[1]; [6]
  zone of inhibition at 175000 µM: 8.97 ± 0.55 mm
[1]; [7]
  zone of inhibition at 350000 µM: 10.9 ± 0.75 mm
[2]; [8]
  MFC: > 5000 µg/mL

## CCCC(=O)O [Butyric acid]
[2]; [8]
  MFC: 5000 µg/mL (≈ 56.7 mM)

## OO [Hydrogen peroxide]
A. niger; 2.43%
  reduction of A. niger count: approximately 1.2 log CFU/mL
A. niger; 2.43% v/v
  A. niger count, Average ± standard deviation: 4.75 ± 0.13^b log CFU/mL
[1]; 0.3% v/v, 72 hours, n = 3
  Zone of inhibition, Average ± standard deviation: 17.10 ± 0.05^cd mm
[1]; 0.6% v/v, 72 hours, n = 3
  Zone of inhibition, Average ± standard deviation: 19.32 ± 0.76^de mm
[1]; 1.0% v/v, 72 hours, n = 3
  Zone of inhibition, Average ± standard deviation: 22.08 ± 0.34d^ef mm
[3]; 0.3% v/v, 72 hours, n = 3
  Zone of inhibition, Average ± standard deviation: 8.00 ± 0.00^b mm
[3]; 0.6% v/v, 72 hours, n = 3
  Zone of inhibition, Average ± standard deviation: 9.42 ± 0.16^bc mm
[3]; 1.0% v/v, 72 hours, n = 3
  Zone of inhibition, Average ± standard deviation: 10.93 ± 0.31^bc mm

## CCC(=O)OO [PPA, perpropionic acid]
A. niger; 0.02 mol/L
  reduction of A. niger count: at least 4 log CFU/mL
[4]
  mold counts seven days after treatment versus control: not significantly different from the control treatment
[1]; [9]
  Zone of inhibition, Average ± standard deviation: 23.80 ± 0.58^ef mm
[1]; [10]
  Zone of inhibition, Average ± standard deviation: 35.45 ± 4.55^g mm
[2]; [8]
  Minimum fungicidal concentration: 500 ppm
[2]; from the MFC study
  times more effective in killing mold than propionic acid: at least 5 times
[3]; [9]
  Zone of inhibition, Average ± standard deviation: 16.42 ± 2.19^d mm
[3]; [10]
  Zone of inhibition, Average ± standard deviation: 25.67 ± 2.05^e mm

## CC(=O)OO [Peracetic acid]
[4]
  mold counts seven days after treatment versus control: not significantly different from the control treatment
[1]; ATCC48908, 72 h
  zone of inhibition at 175000 µM: 24.1 ± 0.33 mm
  zone of inhibition at 350000 µM: 36 ± 3.8 mm
[2]
  MFC: 1000 µg/mL (≈ 13.1 mM)
[3]; ATCC24126, 72 h
  zone of inhibition at 175000 µM: 16 ± 0.8 mm
  zone of inhibition at 350000 µM: 24.7 ± 2.04 mm

## CCC(=O)O [Propionic acid]
Aspergillus niger
  concentration capable of inhibiting: 1000-2000 ppm
A. niger; 0.02 mol/L
  reduction of A. niger count: no count reduction
  A. niger count, Average ± standard deviation: 6.01 ± 0.08^c log CFU/mL
A. niger; 0.04 mol/L (3000 ppm)
  fungicidal effect: no fungicidal effect
A. niger; 0.04 mol/L
  A. niger count, Average ± standard deviation: 6.08 ± 0.11^c log CFU/mL
[1]; [6]
  zone of inhibition at 175000 µM: 9.15 ± 0.45 mm
[1]; [7]
  zone of inhibition at 350000 µM: 12.1 ± 0.43 mm
[2]; [8]
  Minimum fungicidal concentration: >5000 ppm
[3]; ATCC24126, 0.175 mol/L active, 72 hours, n = 3
  zone of inhibition at 175000 µM: 9.42 ± 0.66 mm
[3]; ATCC24126, 0.350 mol/L active, 72 hours, n = 3
  zone of inhibition at 350000 µM: 12.12 ± 0.03 mm
Penicillium vericulosum
  concentration capable of inhibiting: 1000-2000 ppm
[5]
  concentration for complete inhibition: lower than 0.35%

Source: patent publication US20260157369A1, “COMPOSITIONS CONTAINING PEROXYACID TO INHIBIT GROWTH OF SPORE-PRODUCING ORGANISMS IN ANIMAL FEED AND RELATED METHODS” (KEMIN INDUSTRIES, INC., priority 2024, published 2026)
